According to US5968923A, “(Azetidin-1-ylalkyl) lactams as tachykinin antagonists” (Pfizer Inc., priority 1994, dated 1999):

What was measured:
human NK2 receptor = target: T1, human NK2 receptor (Homo sapiens, UniProt P21452); experiment: Competition with [^125 I] NKA for binding to membranes from Chinese hamster ovary cells expressing the cloned human NK2 receptor (Method A); details: Chinese hamster ovary cell membranes; for IC50: read-out: METHOD A (pIC50) (converted)
T1 construct: expressed in transfected cells; host or cells: Chinese hamster ovary (CHO) cells, membranes
T1 sequence (P21452 1-398): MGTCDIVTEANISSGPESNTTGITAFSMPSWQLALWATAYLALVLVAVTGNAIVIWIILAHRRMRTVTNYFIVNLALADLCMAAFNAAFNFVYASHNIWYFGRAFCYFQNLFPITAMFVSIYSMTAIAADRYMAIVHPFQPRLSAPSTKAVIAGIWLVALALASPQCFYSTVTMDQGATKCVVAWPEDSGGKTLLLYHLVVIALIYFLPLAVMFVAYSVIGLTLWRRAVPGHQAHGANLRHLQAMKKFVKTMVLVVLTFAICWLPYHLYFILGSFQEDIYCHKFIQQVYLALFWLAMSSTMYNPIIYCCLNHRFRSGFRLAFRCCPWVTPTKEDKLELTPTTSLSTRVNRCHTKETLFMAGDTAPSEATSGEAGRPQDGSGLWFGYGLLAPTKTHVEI
Description: The affinity of the compounds of formula (I) and their salts for the human NK2 receptor can be tested in vitro by testing their ability to compete with [^3 H] or [^125 I]NKA (neurokinin A) for binding to membranes prepared from Chinese hamster ovary cells expressing the cloned human NK2 receptor. In this method, washed Chinese hamster ovary cell membranes are prepared as described for the previous method where IM9 cells are used instead. The membranes are incubated (90 min, 25° C.) with [^3 H] NKA and with a range of concentrations of the test compound. Non-specific binding was determined in the presence of 10 μM NKA.
(§1) A representative selection of the compounds of the Examples were tested in vitro for their affinity to the human NK2 receptor by testing their ability to compete with [^125 I] NKA for binding to membranes prepared from Chinese hamster ovary cells expressing the cloned human NK2 receptor (Method A) and for their ability to antagonise the contractile effects of [βAla^8 ] NKA(4-10) in the rabbit pulmonary artery (Method B) by the methods described on pages 40 and 41 of the specification.

NK2 receptor = target: T2, NK2 receptor (Oryctolagus cuniculus, UniProt P79218); experiment: Antagonism of the contractile effects of [βAla^8 ] NKA(4-10) in the rabbit pulmonary artery (Method B); format: cell-based; details: agonist [βAla^8 ] NKA(4-10); for Kb: read-out: METHOD B (pA2) (converted)
T2 construct: antagonise the contractile effects of [βAla^8 ]; NKA(4-10) in the rabbit pulmonary artery; from tissue; host or cells: rabbit pulmonary artery
T2 sequence (P79218 1-384): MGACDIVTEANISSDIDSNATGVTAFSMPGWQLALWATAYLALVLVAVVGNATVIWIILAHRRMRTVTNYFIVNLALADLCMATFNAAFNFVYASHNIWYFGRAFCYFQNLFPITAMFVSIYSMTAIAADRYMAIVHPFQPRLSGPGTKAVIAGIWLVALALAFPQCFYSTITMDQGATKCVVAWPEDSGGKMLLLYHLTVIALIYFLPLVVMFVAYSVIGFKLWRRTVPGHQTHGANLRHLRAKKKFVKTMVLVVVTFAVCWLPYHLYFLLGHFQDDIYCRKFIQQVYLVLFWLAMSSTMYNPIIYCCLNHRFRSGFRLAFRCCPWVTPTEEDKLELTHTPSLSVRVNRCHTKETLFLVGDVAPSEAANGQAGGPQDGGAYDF
Description: The NK2 receptor antagonist activity of the compounds of the formula (I) can be tested, in vitro, by testing their ability to antagonise the contractile effects of the selective NK2 receptor agonist [βAla^8 ]NKA(4-10) in the rabbit pulmonary artery, using the method of Patacchini and Maggi, Eur. J. Pharmacol., 236, 31-37 (1993).
as §1

Structure (SMILES): CC(c1ccccc1)N1CC(CCN2CC(N3CCOCC3)C2)(c2ccc(Cl)c(Cl)c2)CCC1=O (stereo not drawn) [Example 75 (enantiomeric pair A)]
- IC50 (human NK2 receptor): 5.01 nM
- Kb (NK2 receptor): 0.794 nM

Structure (SMILES): O=C1CCC(CCN2CC(N3CC[S+]([O-])CC3)C2)(c2ccc(F)c(F)c2)CN1Cc1ccccc1 (stereo not drawn) [Example 14]
- IC50 (human NK2 receptor): 63.1 nM
- Kb (NK2 receptor): 12.6 nM

Structure (SMILES): O=C1CCC(CCN2CC(N3[C@@H]4CC[C@H]3C[C@@H](O)C4)C2)(c2ccc(Cl)c(Cl)c2)CN1Cc1ccccc1 (stereo partly drawn) [Example 104, 1-Benzyl-5-(3,4-dichlorophenyl)-5-(2-[3-(endo-3-hydroxy-8-azabicyolo[3,2,1]oct-8-yl)azetidin-1-yl]ethyl)-2-piperidone]
- METHOD A (pIC50) (human NK2 receptor): 8.8
- METHOD B (pA2) (NK2 receptor): 9.2

Structure (SMILES): CC1CCCCC1CN1CC(CCN2CC(N3CCOCC3)C2)(c2ccc(Cl)c(Cl)c2)CCC1=O (stereo not drawn) [Example 73]
- IC50 (human NK2 receptor): 0.316 nM
- Kb (NK2 receptor): 1.26 nM

Structure (SMILES): O=C1CCC(CCN2CC(C(=O)N3CCCCC3)C2)(c2ccc(Cl)c(Cl)c2)CN1Cc1ccccc1 (stereo not drawn) [Example 31]
- IC50 (human NK2 receptor): 1 nM
- Kb (NK2 receptor): 5.01 nM

Structure (SMILES): CS(=O)(=O)N1CCN(C2CN(CCC3(c4ccc(Cl)cc4)CCC(=O)N(CC4CCCCC4)C3)C2)CC1 (stereo not drawn) [Example 89]
- IC50 (human NK2 receptor): 6.31 nM
- Kb (NK2 receptor): 2.51 nM
